Test results as given in patent publication US7462629B2, “Immunosuppressant compounds and compositions” (IRM LLC, priority 2003, dated 2008).
pEC50: −log10 of the molar value.

Tests used:
human EDG-1 = target: T1, human EDG-1 (Homo sapiens, UniProt P21453); test: EDG-1 (S1P1) GTP [γ-35S] binding assay, membranes from CHO cells; format: biochemical; conditions: CHO membranes expressing human EDG-1
T1 construct: expressed in transfected cells
Experimental: (§1) A. In Vitro: GPCR Activation Assay Measuring GTP [γ-^35S] Binding to Membranes Prepared from CHO Cells Expressing Human EDG Receptors
EDG-1 (S1P1) GTP [γ-^35S] binding assay: Homogenized membranes are prepared from CHO cell clones stably expressing a human EDG-1 N-terminal c-myc tag. Cells are grown in suspension in two 850 cm^2 roller bottles for three or fours days before harvesting. The cells are centrifuged down, washed once with cold PBS, and resuspended in ≦20 ml of Buffer A (20 mM HEPES, pH 7.4, 10 mM EDTA, EDTA-free complete protease inhibitor cocktail [1 tablet/25 ml]). The cell suspension is homogenized on ice, using a Polytron homogenizer at 30000 rpm at three intervals of 15 seconds each. The homogenate is first centrifuged at 2000 rpm on a tabletop low speed centrifuge for 10 minutes. The supernatant, after passing through a cell strainer, is then re-centrifuged at 50,000×g for 25 minutes at 4° C. The pellet is resuspended into buffer B (15% glycerol, 20 mM HEPES, pH 7.4, 0.1 mM EDTA, EDTA-free complete protease inhibitor cocktail [1 tablet/10 ml]). Protein concentration of the prep is determined using the BCA Protein Assay kit (Pierce) using BSA as standard. The membranes are aliquoted and kept frozen at −80° C.
Solutions of test compounds ranging from 10 mM to 0.01 nM are prepared in DMSO. S1P is diluted in 4% BSA solution as positive controls. […]

blood lymphocytes = test: Measurement of circulating lymphocytes (blood lymphocyte depletion); format: in vivo, Mice (C57bl/6 male); conditions: Mus musculus, mice, oral gavage, blood collected 6 and 24 hours after administration, read-out: ED50 (effective dose for 50% of blood lymphocyte depletion)
Experimental: C. In Vivo: Screening Assays for Measurement of Blood Lymphocyte Depletion and Assessment of Heart Effect
Measurement of circulating lymphocytes: Compounds are dissolved in DMSO and diluted to obtain a final concentration of 4% DMSO (v/v, final concentration) and then further diluted in a constant volume of Tween80 25%/H2O, v/v. Tween80 25%/H2O (200 μl), 4% DMSO, and FTY720 (10 μg) are included as negative and positive controls, respectively. Mice (C57bl/6 male, 6-10 week-old) are administered 250-300 μL of compound solution orally by gavages under short isoflurane anesthesia.
Blood is collected from the retro-orbital sinus 6 and 24 hours after drug administration under short isoflurane anesthesia. Whole blood samples are subjected to hematology analysis. Peripheral lymphocyte counts are determined using an automated analyzer. Subpopulations of peripheral blood lymphocytes are stained by fluorochrome-conjugated specific antibodies and analyzed using a fluorescent activating cell sorter (Facscalibur). Two mice are used to assess the lymphocyte depletion activity of each compound screened. The result is an ED50, which is defined as the effective dose required displaying 50% of blood lymphocyte depletion.

[1] = system: EDG-3, EDG-5, EDG-6 and EDG-8; test: EDG-3, -5, -6 and -8 GTP [γ-35S] binding assays (selectivity versus EDG-1); format: biochemical, human
Experimental: as §1
For each membrane preparation, titration experiments are first run with S1P control to determine the optimal amount of membranes to be added per assay well. […] For example, 3-[6-(4-cyclohexyl-3-trifluoromethyl-benzyloxy)-3,4-dihydro-1H-isoquinolin-2-yl]-propionic acid (compound 9) has an EC50 of 0.2 nM in the above assay and is at least 1000 fold selective for EDG-1 compared to one or more of the other receptors including EDG-3, EDG-5, EDG-6 and EDG-8.

T1 sequence (P21453 whole entry): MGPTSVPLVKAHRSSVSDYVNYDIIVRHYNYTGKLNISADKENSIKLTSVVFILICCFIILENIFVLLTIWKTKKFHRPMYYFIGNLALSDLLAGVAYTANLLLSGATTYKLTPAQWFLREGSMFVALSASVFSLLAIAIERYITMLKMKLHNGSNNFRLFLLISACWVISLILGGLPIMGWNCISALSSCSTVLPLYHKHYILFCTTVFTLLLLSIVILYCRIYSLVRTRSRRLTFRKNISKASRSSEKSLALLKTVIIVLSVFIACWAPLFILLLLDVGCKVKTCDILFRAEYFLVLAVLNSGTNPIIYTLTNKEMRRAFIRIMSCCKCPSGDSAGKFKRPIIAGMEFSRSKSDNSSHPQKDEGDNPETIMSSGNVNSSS

pEC50 (human EDG-1): 9.70
selectivity for EDG-1 compared to one or more of EDG-3, EDG-5, EDG-6 and EDG-8 [1]: at least 1000 fold
SMILES: O=C(O)CCN1CCc2cc(OCc3ccc(C4CCCCC4)c(C(F)(F)F)c3)ccc2C1 [Compound 9, 3-[6-(4-cyclohexyl-3-trifluoromethyl-benzyloxy)-3,4-dihydro-1H-isoquinolin-2-yl]-propionic acid]
ED50 (blood lymphocytes): 0.2 mg/kg
